# Article PMC7531004, “Discovery of gramicidin A analogues with altered activities by multidimensional screening of a one-bead-one-compound library” (Nature Communications, 2020)
# Where a SMILES comes first, the peptide text is derived from it. [ ]: non-standard residue; d: D form. The star is where a group is joined. NHCH2CH2OH = OCCN*; For = O=C*
# What was measured:
# [1] = tested on: Streptococcus pyogenes SSI-9; assay: Antibacterial activity assay of bead-derived peptides (three concentrations); assay type: cell-based; design: key: +++: inhibition by the 640-fold diluted peptide solution; ++: inhibition by the 160-fold diluted solution; +: inhibition by the 40-fold diluted solution; -: no inhibition; conditions: S. pyogenes, bead-derived peptide solution, three concentrations
# Outline: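 Three stock dilutions per peptide (none, 4-fold, 16-fold in DMSO) are screened in 96-well format. The medium is blood-supplemented cation-adjusted MHB, inoculated with 2 × 10^5 CFU S. pyogenes SSI-9. Growth is read as cell precipitation at 18 h, 37 °C.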
# [2] = tested on: P388 mouse leukemia cells; conditions: 92 h
# Outline: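 First, library peptide stocks are diluted 250-fold in RPMI1640 with 10% heat-inactivated FBS. Next, they are mixed with P388 cells to give 1 × 10^4 cells/mL and incubated 92 h at 37 °C, 5% CO2. Finally, viability (%) is scored by WST-1 absorbance at 415 nm.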
# [3] = H+/Na+ transport assay of bead-derived peptides (one-point); assay type: biochemical; design: key: relative activity; mean of two control wells = 1.00; conditions: bead-derived peptide solution, EYPC/EYPG LUVs;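 also: relative to parent gramicidin A activity set to 1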
# Outline: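 Values are normalized fluorescence, with Triton X-100 defining 100% and untreated LUVs 0%, and the two control wells averaging 1.00. Vesicles carried 1.0 mM pyranine and included egg yolk phosphatidylglycerol. Peptides were incubated with them 30 min at room temperature.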
smiles,measurement,setting,value
CC(C)C[C@@H](NC(=O)[C@H](C)NC(=O)[C@H](NC(=O)[C@H](C)NC(=O)CNC(=O)[C@@H](NC=O)C(C)C)C(C)C)C(=O)N[C@H](C(=O)N[C@@H](C(=O)N[C@@H](Cc1c[nH]c2ccccc12)C(=O)N[C@H](CC(C)C)C(=O)N[C@@H](Cc1c[nH]c2ccccc12)C(=O)N[C@@H](C(=O)N[C@@H](Cc1c[nH]c2ccccc12)C(=O)N[C@H](CC(C)C)C(=O)N[C@@H](Cc1c[nH]c2ccccc12)C(=O)NCCO)C(C)C)C(C)C)C(C)C [compound 10261] (For-VGA[dV]A[dL]V[dV]W[dL]W[dV]W[dL]W-NHCH2CH2OH),antibacterial activity,[1],+
same,cell viability/%,[2],46.3%
same,H+/Na+ transport activity normalized against the value of 1 (1.00),[3],1.05
CC(C)C[C@@H](NC(=O)[C@H](Cc1c[nH]c2ccccc12)NC(=O)[C@H](NC(=O)[C@H](Cc1c[nH]c2ccccc12)NC(=O)[C@H](NC(=O)[C@@H](NC(=O)[C@H](NC(=O)[C@H](C)NC(=O)[C@H](NC(=O)[C@H](C)NC(=O)CNC(=O)[C@@H](NC=O)C(C)C)[C@H](C)O)C(C)C)C(C)C)C(C)C)C(C)C)C(=O)N[C@@H](Cc1c[nH]c2ccccc12)C(=O)N[C@@H](C(=O)N[C@@H](Cc1c[nH]c2ccccc12)C(=O)NCCO)C(C)C [compound 6820] (For-VGA[dT]A[dV]V[dV]W[dV]W[dL]W[dV]W-NHCH2CH2OH),antibacterial activity,[1],-
same,cell viability/%,[2],100.0%
same,H+/Na+ transport activity normalized against the value of 1 (1.00),[3],1.20
CC(C)C[C@@H](NC(=O)[C@H](C)NC(=O)CNC(=O)[C@@H](NC=O)C(C)C)C(=O)N[C@@H](C)C(=O)N[C@@H](C(=O)N[C@H](C(=O)N[C@H](CC(C)C)C(=O)N[C@@H](Cc1c[nH]c2ccccc12)C(=O)N[C@@H](C(=O)N[C@@H](Cc1c[nH]c2ccccc12)C(=O)N[C@H](CC(C)C)C(=O)N[C@@H](Cc1c[nH]c2ccccc12)C(=O)N[C@@H](C(=O)N[C@@H](Cc1c[nH]c2ccccc12)C(=O)NCCO)[C@H](C)O)C(C)C)C(C)C)C(C)C [compound 1522] (For-VGA[dL]A[dV]V[dL]W[dV]W[dL]W[dT]W-NHCH2CH2OH),antibacterial activity,[1],-
same,cell viability/%,[2],100.0%
same,H+/Na+ transport activity normalized against the value of 1 (1.00),[3],1.03
CC(C)C[C@@H](NC(=O)[C@H](Cc1c[nH]c2ccccc12)NC(=O)[C@H](NC(=O)[C@H](Cc1c[nH]c2ccccc12)NC(=O)[C@H](NC(=O)[C@H](Cc1c[nH]c2ccccc12)NC(=O)[C@@H](CC(C)C)NC(=O)[C@@H](NC(=O)[C@H](NC(=O)[C@H](C)NC(=O)[C@H](NC(=O)[C@H](C)NC(=O)CNC(=O)[C@@H](NC=O)C(C)C)C(C)C)C(C)C)C(C)C)C(C)C)C(C)C)C(=O)N[C@@H](Cc1c[nH]c2ccccc12)C(=O)NCCO [compound 12721] (For-VGA[dV]A[dV]V[dL]W[dV]W[dV]W[dL]W-NHCH2CH2OH),antibacterial activity,[1],+
same,cell viability/%,[2],51.7%
same,H+/Na+ transport activity normalized against the value of 1 (1.00),[3],1.04
CNC(=O)C[C@@H](NC(=O)[C@@H](NC(=O)[C@@H](CC(C)C)NC(=O)[C@H](C)NC(=O)[C@@H](CC(C)C)NC(=O)[C@H](C)NC(=O)CNC(=O)[C@@H](NC=O)C(C)C)C(C)C)C(=O)N[C@@H](Cc1c[nH]c2ccccc12)C(=O)N[C@H](CC(C)C)C(=O)N[C@@H](Cc1c[nH]c2ccccc12)C(=O)N[C@@H](C(=O)N[C@@H](Cc1c[nH]c2ccccc12)C(=O)N[C@H](CC(C)C)C(=O)N[C@@H](Cc1c[nH]c2ccccc12)C(=O)NCCO)C(C)C [compound 173] (For-VGA[dL]A[dL]V[dD](NHMe)W[dL]W[dV]W[dL]W-NHCH2CH2OH),antibacterial activity,[1],-
same,cell viability/%,[2],100.0%
same,H+/Na+ transport activity normalized against the value of 1 (1.00),[3],1.07
CC(C)C[C@@H](NC(=O)[C@H](C)NC(=O)CNC(=O)[C@@H](NC=O)C(C)C)C(=O)N[C@@H](C)C(=O)N[C@@H](C(=O)N[C@H](C(=O)N[C@@H](C(=O)N[C@@H](Cc1c[nH]c2ccccc12)C(=O)N[C@@H](C(=O)N[C@@H](Cc1c[nH]c2ccccc12)C(=O)N[C@@H](C(=O)N[C@@H](Cc1c[nH]c2ccccc12)C(=O)N[C@@H](C(=O)N[C@@H](Cc1c[nH]c2ccccc12)C(=O)NCCO)C(C)C)C(C)C)C(C)C)C(C)C)C(C)C)C(C)C [compound 12092] (For-VGA[dL]A[dV]V[dV]W[dV]W[dV]W[dV]W-NHCH2CH2OH),antibacterial activity,[1],+
same,cell viability/%,[2],100.0%
same,H+/Na+ transport activity normalized against the value of 1 (1.00),[3],1.14
CC(C)C[C@@H](NC(=O)[C@H](C)NC(=O)CNC(=O)[C@@H](NC=O)C(C)C)C(=O)N[C@@H](C)C(=O)N[C@H](CC(C)C)C(=O)N[C@H](C(=O)N[C@@H](C(=O)N[C@@H](Cc1c[nH]c2ccccc12)C(=O)N[C@H](CC(C)C)C(=O)N[C@@H](Cc1c[nH]c2ccccc12)C(=O)N[C@@H](C(=O)N[C@@H](Cc1c[nH]c2ccccc12)C(=O)N[C@H](CC(C)C)C(=O)N[C@@H](Cc1c[nH]c2ccccc12)C(=O)NCCO)[C@H](C)O)[C@H](C)O)C(C)C [compound 3780] (For-VGA[dL]A[dL]V[dT]W[dL]W[dT]W[dL]W-NHCH2CH2OH),antibacterial activity,[1],-
same,cell viability/%,[2],100.0%
same,H+/Na+ transport activity normalized against the value of 1 (1.00),[3],1.16
CNC(=O)C[C@@H](NC(=O)[C@@H](NC(=O)[C@H](NC(=O)[C@H](C)NC(=O)[C@H](NC(=O)[C@H](C)NC(=O)CNC(=O)[C@@H](NC=O)C(C)C)C(C)C)C(C)C)C(C)C)C(=O)N[C@@H](Cc1c[nH]c2ccccc12)C(=O)N[C@H](CC(C)C)C(=O)N[C@@H](Cc1c[nH]c2ccccc12)C(=O)N[C@H](CC(C)C)C(=O)N[C@@H](Cc1c[nH]c2ccccc12)C(=O)N[C@@H](C(=O)N[C@@H](Cc1c[nH]c2ccccc12)C(=O)NCCO)C(C)C [compound 6899] (For-VGA[dV]A[dV]V[dD](NHMe)W[dL]W[dL]W[dV]W-NHCH2CH2OH),antibacterial activity,[1],-
same,cell viability/%,[2],100.0%
same,H+/Na+ transport activity normalized against the value of 1 (1.00),[3],1.12
CC(C)C[C@@H](NC(=O)[C@H](C)NC(=O)CNC(=O)[C@@H](NC=O)C(C)C)C(=O)N[C@@H](C)C(=O)N[C@@H](C(=O)N[C@H](C(=O)N[C@H](CC(C)C)C(=O)N[C@@H](Cc1c[nH]c2ccccc12)C(=O)N[C@@H](C(=O)N[C@@H](Cc1c[nH]c2ccccc12)C(=O)N[C@H](CC(C)C)C(=O)N[C@@H](Cc1c[nH]c2ccccc12)C(=O)N[C@@H](C(=O)N[C@@H](Cc1c[nH]c2ccccc12)C(=O)NCCO)[C@H](C)O)C(C)C)C(C)C)C(C)C [compound 8906] (For-VGA[dL]A[dV]V[dL]W[dV]W[dL]W[dT]W-NHCH2CH2OH),antibacterial activity,[1],+
same,cell viability/%,[2],79.1%
same,H+/Na+ transport activity normalized against the value of 1 (1.00),[3],1.08
CC(C)C[C@@H](NC(=O)[C@H](Cc1c[nH]c2ccccc12)NC(=O)[C@@H](CC(C)C)NC(=O)[C@H](Cc1c[nH]c2ccccc12)NC(=O)[C@H](NC(=O)[C@H](Cc1c[nH]c2ccccc12)NC(=O)[C@@H](CC(C)C)NC(=O)[C@@H](NC(=O)[C@H](NC(=O)[C@H](C)NC(=O)[C@H](NC(=O)[C@H](C)NC(=O)CNC(=O)[C@@H](NC=O)C(C)C)C(C)C)C(C)C)C(C)C)C(C)C)C(=O)N[C@@H](Cc1c[nH]c2ccccc12)C(=O)NCCO [compound 12538] (For-VGA[dV]A[dV]V[dL]W[dV]W[dL]W[dL]W-NHCH2CH2OH),antibacterial activity,[1],-
same,cell viability/%,[2],2.1%
same,H+/Na+ transport activity normalized against the value of 1 (1.00),[3],1.01
